Data from patent publication US7119063B2, “Memory-enhancing peptides and the use thereof” (Shanghai Cas Intide Biotech Co., Ltd., priority 2000, dated 2006).

Test system: learning and memory process of mouse
Experiment: platform-jumping electrical-shock avoidance test, learning and 24 h memory, scopolamine-induced impediment
Format: in vivo
Conditions: for Memory Results EN / Memory Results RT / Learning Results EN / Learning Results RT: scopolamine 1 mg/kg; for Memory Results EN / Memory Results RT: memory test 24 hrs later; for Learning Results EN / Learning Results RT: training trial
Description: The pharmacological tests of memory-enhancing peptide in this invention have been performed as following: the animals have been divided into three groups: drug administration group, control group and model group, with each group administrated with memory-enhancing peptide, saline and scopolamine respectively. In the test, the groups except control group were injected with scopolamine after the administration of medicine about 50 min., 10 min. later, the training began. First, the animals will be put into reaction box for 3 min. before each trails to familiarize them with the environment. Then, the reaction box are charged with 36V alternating current. When the animal subjects to electrical shock, it will jump up to the central platform to avoid harmful stimulation as a normal response. Most of animals may be return to the copper curdles twice or even more times, but they will jump back to the platform swiftly as the results of electrical shock. Each test trail will be performed for 5 min. and two following indices will be used to represent the learning results: (I) the number of total error (EN) during the whole training period; (2) the reaction time (RT) for the first returning to the copper curdle in the trail. The trails will repeat again 24 hrs later as memory test.

Molecule | Memory Results EN (drug 100 μg/kg) | Memory Results RT (drug 100 μg/kg) | Learning Results EN (drug 100 μg/kg, number of total errors) | Learning Results RT (drug 100 μg/kg, reaction time for first return to the copper curdle) | effect on memory and learning impediment induced by scopolamine, compared with model group (0.5 μg and 1 μg/kg, longer incubation period and lesser error numbers, P<0.01) | effect on memory and learning impediment induced by scopolamine, compared with Huperzine A (100 μg/kg) (0.5 μg/kg and 1 μg/kg) | Memory Results EN (drug 0.25 μg/kg) | Memory Results RT (drug 0.25 μg/kg) | Learning Results EN (drug 0.25 μg/kg) | Learning Results RT (drug 0.25 μg/kg) | Memory Results EN (drug 0.5 μg/kg) | Memory Results RT (drug 0.5 μg/kg) | Learning Results EN (drug 0.5 μg/kg) | Learning Results RT (drug 0.5 μg/kg) | Memory Results EN (drug 1 μg/kg) | Memory Results RT (drug 1 μg/kg) | Learning Results EN (drug 1 μg/kg) | Learning Results RT (drug 1 μg/kg) | effect on memory and learning impediment induced by scopolamine (summary of Table 1) (mouse, in vivo)
C/C=C1\[C@H]2C=C(C)C[C@]1(N)c1ccc(=O)[nH]c1C2 [Huperzine A, reference compound] | 0.9 | 231.9 s | 1.3 | 120.5 s |  |  |  |  |  |  |  |  |  |  |  |  |  |  | 
PyroGlu-Asn-Cys(S-Bu^t)-Pro-Arg [MEP-531] |  |  |  |  | obviously improve | better effects than Huperzine A | 0.9 | 197.6 s | 0.3 | 78.8 s | 0.5 | 245.5 s | 0.2 | 241.6 s | 0.3 | 282.8 s | 0.3 | 267.6 s | remarkably ameliorate
